Like-named read-outs stand apart in the source and are kept apart here.
What was measured:
[1] = system: Bacteroides melaninogenicus; experiment: agar-dilution MIC; type: cell-based; conditions: Bacteroides melaninogenicus 2736; Table 14
Clostridium perfringens = type: cell-based; conditions: Clostridium perfringens 81; Table 14
Staphylococcus aureus = experiment: agar-dilution MIC; type: cell-based
Bacteroides vulgatis [2] = experiment: agar-dilution MIC; type: cell-based; conditions: Bacteroides vulgatis 1211; Table 14
[3] = system: Peptostreptococcus anaerobius; experiment: agar-dilution MIC; type: cell-based
[4] = system: Staphylococcus epidermidis; experiment: agar-dilution MIC; type: cell-based
Text: (§1) The agar-dilution procedure described by the International Collaborative study (ICS) group was used to determine the minimum inhibitory concentrations (MIC's).

[5] = system: Streptococcus sp. (Group D); experiment: agar-dilution MIC; type: cell-based
Text: as §1

Bacteroides fragilis = experiment: agar-dilution MIC; type: cell-based
Text: as §1

Streptococcus pneumoniae = experiment: agar-dilution MIC; type: cell-based
Text: as §1

Streptococcus pyogenes = experiment: agar-dilution MIC; type: cell-based
Text: as §1

Clostridium septicum = experiment: agar-dilution MIC; type: cell-based; conditions: Clostridium septicum 1128; Table 14
Peptococcus constellatus = experiment: agar-dilution MIC; type: cell-based; conditions: Pc. constellatus 1468; Table 15
Protocol: (§2) The MIC values were determined by the agar-dilution method, and are recorded in Table 15, which follows.

Peptococcus magnus = experiment: agar-dilution MIC; type: cell-based; conditions: Pc. magnus 1477; Table 15
Protocol: as §2

[6] = system: Peptococcus asaccharolyticus; experiment: agar-dilution MIC; type: cell-based; conditions: Table 15
Protocol: as §2

Peptococcus prevoti [7] = experiment: agar-dilution MIC; type: cell-based; conditions: Table 15
Protocol: as §2

Fusobacterium symbiosum = experiment: agar-dilution MIC; type: cell-based; conditions: Fusobacterium symbiosum 1470; Table 14
Bacteroides corrodens = experiment: agar-dilution MIC; type: cell-based; conditions: B. corrodens 1874; 24-hour; Table 12
Text: (§3) The A41030 antibiotics, factors A, B, and C, are active against a genus of anaerobic bacteria identified as Bacteroides sp., the 24-hour MIC values being determined by the agar-dilution method, and are set forth in Table 12, which follows.

Bacteroides vulgatis [8] = experiment: agar-dilution MIC; type: cell-based; conditions: B. vulgatis 1563; 24-hour; Table 12
Text: as §3

Clostridium difficile = type: cell-based
Peptococcus prevoti [9] = experiment: agar-dilution MIC; type: cell-based
Propionibacterium acnes = experiment: agar-dilution MIC; type: cell-based
Text: Antibiotic A41030 factors A, B and C have also been tested and found to be active against a genus of anaerobic bacteria identified as Propionibacterium acnes.

S. pyogenes = experiment: experimental bacterial infection in mice; type: in vivo

NC1C(=O)NC2Cc3ccc(c(Cl)c3)Oc3cc4cc(c3O)Oc3ccc(cc3Cl)C(O)C3NC(=O)C(NC(=O)C4NC(=O)C(NC2=O)c2cc(O)cc(c2)Oc2cc1ccc2O)c1cc(Cl)c(O)c(c1)-c1c(O)cc(O)cc1C(C(=O)O)NC3=O (stereo not drawn) [A41030 factor A]
32 µg/mL: MIC (Bacteroides vulgatis [2]) | MIC (Bacteroides fragilis; B. fragilis 103, 24-hour, Table 12) | MIC (Bacteroides fragilis; B. fragilis 104, 24-hour, Table 12) | MIC (Bacteroides fragilis; B. fragilis 107, 24-hour, Table 12) | MIC (Bacteroides fragilis; B. fragilis 108, 24-hour, Table 12) | MIC (Bacteroides fragilis; B. fragilis 111, 24-hour, Table 12) | MIC (Bacteroides fragilis; B. fragilis 113, 24-hour, Table 12) | MIC (Bacteroides fragilis; B. fragilis 1877, 24-hour, Table 12) | MIC (Bacteroides fragilis; Bacteroides fragilis 1877, Table 14) | MIC (Bacteroides corrodens) | MIC (Bacteroides vulgatis [8]) | MIC (Clostridium difficile; Clostridium difficile 2994, Table 14)
2 µg/mL: MIC ([5]; Streptococcus sp. Group D 9960, Table 17) | MIC (Clostridium septicum)
64 µg/mL: MIC (Bacteroides fragilis; B. fragilis 2, 24-hour, Table 12) | MIC (Bacteroides fragilis; B. fragilis 9, 24-hour, Table 12) | MIC (Bacteroides fragilis; B. fragilis 106, 24-hour, Table 12) | MIC (Bacteroides fragilis; B. fragilis 110, 24-hour, Table 12) | MIC (Bacteroides fragilis; B. fragilis 112, 24-hour, Table 12) | MIC (Bacteroides fragilis; B. fragilis 1451, 24-hour, Table 12) | MIC (Bacteroides fragilis; B. fragilis 1470, 24-hour, Table 12) | MIC (Bacteroides fragilis; B. fragilis 9032, 24-hour, Table 12) | MIC (Bacteroides fragilis; Bacteroides fragilis 1936B, Table 14)
1.0 µg/mL: MIC (Peptococcus prevoti [7]; Pc. prevoti 1293) | MIC (Peptococcus prevoti [7]; Pc. prevoti 1407) | MIC (Fusobacterium symbiosum) | MIC (Clostridium difficile; Clostridium difficile 78, Table 16) | MIC (Clostridium difficile; Clostridium difficile 107B, Table 16) | MIC (Clostridium difficile; Clostridium difficile 111F, Table 16) | MIC (Clostridium difficile; Clostridium difficile 1153, Table 16) | MIC (Clostridium difficile; Clostridium difficile 2634, Table 16) | MIC (Clostridium difficile; Clostridium difficile 3424-5B, Table 16) | MIC (Clostridium difficile; Clostridium difficile 3816, Table 16) | MIC (Clostridium difficile; Clostridium difficile 3950D, Table 16) | MIC (Clostridium difficile; Clostridium difficile 6890, Table 16) | MIC (Clostridium difficile; Clostridium difficile 8484, Table 16) | MIC (Clostridium difficile; Clostridium difficile A-194, Table 16) | MIC (Clostridium difficile; Clostridium difficile A-195, Table 16) | MIC (Clostridium difficile; Clostridium difficile A-196, Table 16) | MIC (Clostridium difficile; Clostridium difficile A-279, Table 16) | MIC (Clostridium difficile; Clostridium difficile A-280, Table 16) | MIC (Clostridium difficile; Clostridium difficile A-281, Table 16) | MIC (Clostridium difficile; Clostridium difficile WAL-2112, Table 16) | MIC (Clostridium difficile; Clostridium difficile WAL-3657, Table 16) | MIC (Clostridium difficile; Clostridium difficile WAL-4268, Table 16) | MIC (Propionibacterium acnes; P. acnes 5228, 24-hour, Table 13)
0.25 µg/mL: MIC (Staphylococcus aureus; Staphylococcus aureus S13E, Table 17) | MIC ([5]; Streptococcus sp. (Group D) 238, Table 11) | MIC ([5]; Streptococcus sp. (Group D) 282, Table 11) | MIC ([5]; Streptococcus sp. (Group D) 9901, Table 11) | MIC ([5]; Streptococcus sp. (Group D) 12253F, Table 11) | MIC ([5]; Streptococcus sp. (Group D) Guze, Table 11) | MIC ([5]; Streptococcus sp. Group D 8043, end point after 24 hours, Table 18) | MIC ([5]; Streptococcus sp. Group D 12253F, end point after 24 hours, Table 18) | MIC ([5]; Streptococcus sp. Group D Mx161, end point after 24 hours, Table 18) | MIC ([5]; Streptococcus sp. Group D X66, end point after 24 hours, Table 18) | MIC (Streptococcus pneumoniae; Streptococcus pneumoniae 2764, Table 11) | MIC (Streptococcus pneumoniae; Streptococcus pneumoniae 6301, Table 11) | MIC (Streptococcus pneumoniae; Streptococcus pneumoniae B1-438, end point after 24 hours, Table 18) | MIC (Streptococcus pneumoniae; Streptococcus pneumoniae BI-343, Table 11) | MIC (Streptococcus pneumoniae; Streptococcus pneumoniae Park I, Table 11) | MIC (Streptococcus pneumoniae; Streptococcus pneumoniae Type 14, Table 11) | MIC (Streptococcus pyogenes; Streptococcus pyogenes 9943, Table 11) | MIC (Streptococcus pyogenes; Streptococcus pyogenes 10389, Table 11) | MIC (Streptococcus pyogenes; Streptococcus pyogenes C203, Table 11) | MIC (Streptococcus pyogenes; Streptococcus pyogenes C203, end point after 24 hours, Table 18) | MIC (Streptococcus pyogenes; Streptococcus pyogenes M-6517, Table 11) | MIC (Propionibacterium acnes; P. acnes 104, 24-hour, Table 13)
0.06 µg/mL: MIC (Staphylococcus aureus; Staphylococcus aureus 3055, end point after 24 hours, Table 18) | MIC (Staphylococcus aureus; Staphylococcus aureus V138, end point after 24 hours, Table 18) | MIC ([4]; Staphylococcus epidermidis 219, end point after 24 hours, Table 18) | MIC ([4]; Staphylococcus epidermidis 269, end point after 24 hours, Table 18) | MIC ([4]; Staphylococcus epidermidis 270, end point after 24 hours, Table 18) | MIC ([4]; Staphylococcus epidermidis 285, end point after 24 hours, Table 18) | MIC (Propionibacterium acnes; P. acnes 107, 24-hour, Table 13) | MIC (Propionibacterium acnes; P. acnes 5246, 24-hour, Table 13) | MIC (Propionibacterium acnes; P. acnes 5292, 24-hour, Table 13)
≤ 0.03 µg/mL: MIC ([3]; Ps. anaerobius 1418, Table 15) | MIC ([6]; Pc. asaccharolyticus 1302) | MIC (Propionibacterium acnes; P. acnes 5170, 24-hour, Table 13) | MIC (Propionibacterium acnes; P. acnes 5176, 24-hour, Table 13) | MIC (Propionibacterium acnes; P. acnes 5187, 24-hour, Table 13) | MIC (Propionibacterium acnes; P. acnes 5197, 24-hour, Table 13) | MIC (Propionibacterium acnes; P. acnes 5227, 24-hour, Table 13)
0.13 µg/mL: MIC (Staphylococcus aureus; Staphylococcus aureus 3055, Table 11) | MIC ([4]; Staphylococcus epidermidis Britton, Table 11) | MIC ([4]; Staphylococcus epidermidis Litton, Table 11)
0.5 µg/mL: MIC (Clostridium perfringens) | MIC ([3]; Ps. anaerobius 8, Table 15) | MIC ([3]; Ps. anaerobius 52, Table 15) | MIC ([3]; Ps. anaerobius 59, Table 15) | MIC ([3]; Ps. anaerobius 1428, Table 15) | MIC ([3]; Ps. anaerobius 1451, Table 15) | MIC ([3]; Ps. anaerobius 1477, Table 15) | MIC ([5]; Streptococcus sp. Group D 2041, end point after 24 hours, Table 18) | MIC ([5]; Streptococcus sp. Group D 2058, end point after 24 hours, Table 18) | MIC ([5]; Streptococcus sp. Group D 9960, end point after 24 hours, Table 18) | MIC (Streptococcus pneumoniae; Streptococcus pneumoniae Park I, Table 17) | MIC (Streptococcus pyogenes; Streptococcus pyogenes 12344, Table 11) | MIC (Streptococcus pyogenes; Streptococcus pyogenes C203, Table 17) | MIC (Peptococcus constellatus) | MIC (Peptococcus magnus) | MIC ([6]; Pc. asaccharolyticus 1344) | MIC (Peptococcus prevoti [9]; Pc. prevoti 1281, Table 15) | MIC (Propionibacterium acnes; P. acnes 5226, 24-hour, Table 13) | MIC (Propionibacterium acnes; P. acnes 5229, 24-hour, Table 13)
≤ 0.06 µg/mL: MIC (Staphylococcus aureus; Staphylococcus aureus 3074, Penicillin-resistant, Table 11) | MIC (Staphylococcus aureus; Staphylococcus aureus 3131 (**Penicillin, methicillin, and erythromycin), Table 11) | MIC (Staphylococcus aureus; Staphylococcus aureus 3134 (**Penicillin, methicillin, and erythromycin), Table 11) | MIC (Staphylococcus aureus; Staphylococcus aureus H43, Penicillin-resistant, Table 11) | MIC (Staphylococcus aureus; Staphylococcus aureus H290, Table 11) | MIC (Staphylococcus aureus; Staphylococcus aureus V57, Penicillin-resistant, Table 11) | MIC ([4]; Staphylococcus epidermidis Mencher, Table 11) | MIC ([4]; Staphylococcus epidermidis Mobley, Table 11)
≤ 0.25 µg/mL: MIC ([3]; Peptostreptococcus anaerobius 1428, Table 14) | MIC (Peptococcus prevoti [9]; Peptococcus prevoti 1281, Table 14) | MIC (Propionibacterium acnes; Propionibacterium acnes 79, Table 14)
> 300 mg./kg. X 2: in vivo oral activity (S. pyogenes; against S. pyogenes in mice, oral)
2.8 mg/kg: ED50 (S. pyogenes; S. pyogenes infection in mice, two doses subcutaneously)
1 µg/mL: MIC ([4]; Staphylococcus epidermidis EPI2, Table 17) | MIC ([5]; Streptococcus sp. Group D 9901, end point after 24 hours, Table 18) | MIC ([5]; Streptococcus sp. Group D X66, Table 17)
4 µg/mL: MIC [1]

From patent US4604239A, “Antibiotics” (Eli Lilly and Company, priority 1985, dated 1986)
